# Read-outs that look alike come from different tables or passages of the source.
# Key:
# Solubility = assay type: physicochemical
# [1] = test system: hyperacetylation of tubulin, H3K9 and H3K27; assay: Western blot of tubulin and histone H3 hyperacetylation in 4T1 cells; assay type: cell-based, mouse; conditions: hybrids 10 μM, 6 h
# Procedure: The potential for compounds as HDACi’s can be rapidly tested in cells in culture by monitoring the hyperacetylation of histone H3 and tubulin. H3 acetylation is controlled by multiple class I enzymes, and the class IIb enzyme HDAC6 regulates tubulin acetylation.[36]−[39] […] (Figure 4A).
# Figure 4 Evidence for HDAC inhibition in 4T1 and 4TO7 TNBC cells. Western blots and quantification of triplicate biological replicates analyzing the effects of 1,25D (100 nM), SAHA (100 nM), and hybrids (10 μM) on hyperacetylation of tubulin (A,D), H3K9 (B,E), and H3K27 (C,F) in 4T1 (A–C) and 4TO7 cells (D–F).
# After 6 h treatments, 4T1, 4T07, or B16-F10 cells were solubilized in lysis buffer (20 mM Tris, pH 8, 150 mM NaCl, 1% Triton X-100, 3.5 mM SDS, and 13 mM deoxycholic acid), and proteins were separated on a 4–15% Tris/glycine/SDS gel (Bio-Rad). Then, the proteins were transferred to a nitrocellulose membrane, followed by blocking in 5% skim milk in Tris-buffered saline (TBS, 1×) solution. After blocking, the membranes were incubated overnight at 4 °C with the primary antibodies against acetylated tubulin (Sigma-Aldrich—#T7451), tubulin (Sigma-Aldrich—#T9026), acetyl-histone H3(Lys9) (Merck Millipore—#07-352), acetyl-histone H3 (Lys27) (Abcam—#ab4729), total histone H3 (Cell Signaling Technology (CST)—#3638), and GAPDH (Abcam—#ab8245). Then, the membranes were incubated with antimouse (CST—#7076) or antirabbit (CST—#7074) IgG HRP-linked secondary antibodies at recommended concentrations. Finally, signals were detected using Clarity ECL substrates (Bio-Rad) and a ChemiDoc Imaging System. Changes in protein levels were quantified relative to control using Image Lab software (version 6.0.1) after normalization to GAPDH. Western blot experiments were carried out three times.
# [2] = test system: hyperacetylation of tubulin, H3K9 and H3K27; assay: Western blot of tubulin and histone H3 hyperacetylation in B16-F10 cells; assay type: cell-based, mouse; conditions: SAHA 100 nM
# Source text: B16-F10 cells are responsive to 1,25D analogues[45] and HDACi[46],[47] and are therefore widely used in preclinical studies of melanoma solid tumor growth and metastases.[48] Although curable when treated early, melanoma is fatal when invasive. The American Cancer Society projected 97,610 new invasive melanoma cases in the US in 2023 and 7990 deaths. Current treatment options include chemotherapy, surgery, immunotherapy, or single agents targeting mutated genes such as B-RAF or C-KIT.[49]
# After 6 h treatments, 4T1, 4T07, or B16-F10 cells were solubilized in lysis buffer (20 mM Tris, pH 8, 150 mM NaCl, 1% Triton X-100, 3.5 mM SDS, and 13 mM deoxycholic acid), and proteins were separated on a 4–15% Tris/glycine/SDS gel (Bio-Rad). Then, the proteins were transferred to a nitrocellulose membrane, followed by blocking in 5% skim milk in Tris-buffered saline (TBS, 1×) solution. […] Finally, signals were detected using Clarity ECL substrates (Bio-Rad) and a ChemiDoc Imaging System. Changes in protein levels were quantified relative to control using Image Lab software (version 6.0.1) after normalization to GAPDH. […]
# Figure S2. […] Quantification of the analyses of hyperacetylation in B16-F10 cells of tubulin, H3K9 and H3K27. […]
# B16-F10 tumors = assay: B16-F10 melanoma model in vivo; parameters: species or system mouse; conditions: 2 doses of 5 mg/kg 24 h apart; also VDR gene; duplicate tumors from two animals
# Procedure: We were then interested in comparing the efficacy of ZG compounds and other hybrids in tumor models in vivo. We focused initially on the B16-F10 melanoma which is syngeneic with C57BL/6 mice. The efficacy of ZG-126 in vivo in this model was tested in two experiments. […] In a second experiment, we compared the antitumor efficacy of hybrids at ∼0.5 MTD doses. […] All treatments were well tolerated, and body weights were unaffected (Figure 6C).
# (§1) Finally, mice were sacrificed, and lungs of 4T1-bearing mice were removed to evaluate the efficiency of treatments on lung metastases.
# 4T1 tumors = assay: 4T1 TNBC model in vivo (primary tumor and lung metastases); parameters: species or system mouse; conditions: 4T1 model; for #Surface metastases (lung): vehicle 166
# Procedure: As 4T1 cells are aggressively metastatic, we can also assess the antimetastatic activity in the same experiment. All treatments were well tolerated, and, as in the B16-F10 model, none induced weight loss or other signs of stress over the course of the experiment (Figure 7A). Treatments reduced the primary tumor burden to varying degrees.
# The antimetastatic activity was determined by counting the number of surface lung metastases of duplicate samples using a stereomicroscope. […] This degree of efficacy is remarkable, as in previous experiments, DK-406 reduced the metastatic burden by ∼2-fold.[30]
# as §1
# in vivo = conditions: BALB/c, mouse, ip
# HDAC4 = HDAC4 (Homo sapiens, UniProt P56524); assay: Biochemical assay for HDAC inhibition, HDAC4; conditions: read-out: IC50 HDAC4
# Chain of HDAC4 (P56524 whole entry): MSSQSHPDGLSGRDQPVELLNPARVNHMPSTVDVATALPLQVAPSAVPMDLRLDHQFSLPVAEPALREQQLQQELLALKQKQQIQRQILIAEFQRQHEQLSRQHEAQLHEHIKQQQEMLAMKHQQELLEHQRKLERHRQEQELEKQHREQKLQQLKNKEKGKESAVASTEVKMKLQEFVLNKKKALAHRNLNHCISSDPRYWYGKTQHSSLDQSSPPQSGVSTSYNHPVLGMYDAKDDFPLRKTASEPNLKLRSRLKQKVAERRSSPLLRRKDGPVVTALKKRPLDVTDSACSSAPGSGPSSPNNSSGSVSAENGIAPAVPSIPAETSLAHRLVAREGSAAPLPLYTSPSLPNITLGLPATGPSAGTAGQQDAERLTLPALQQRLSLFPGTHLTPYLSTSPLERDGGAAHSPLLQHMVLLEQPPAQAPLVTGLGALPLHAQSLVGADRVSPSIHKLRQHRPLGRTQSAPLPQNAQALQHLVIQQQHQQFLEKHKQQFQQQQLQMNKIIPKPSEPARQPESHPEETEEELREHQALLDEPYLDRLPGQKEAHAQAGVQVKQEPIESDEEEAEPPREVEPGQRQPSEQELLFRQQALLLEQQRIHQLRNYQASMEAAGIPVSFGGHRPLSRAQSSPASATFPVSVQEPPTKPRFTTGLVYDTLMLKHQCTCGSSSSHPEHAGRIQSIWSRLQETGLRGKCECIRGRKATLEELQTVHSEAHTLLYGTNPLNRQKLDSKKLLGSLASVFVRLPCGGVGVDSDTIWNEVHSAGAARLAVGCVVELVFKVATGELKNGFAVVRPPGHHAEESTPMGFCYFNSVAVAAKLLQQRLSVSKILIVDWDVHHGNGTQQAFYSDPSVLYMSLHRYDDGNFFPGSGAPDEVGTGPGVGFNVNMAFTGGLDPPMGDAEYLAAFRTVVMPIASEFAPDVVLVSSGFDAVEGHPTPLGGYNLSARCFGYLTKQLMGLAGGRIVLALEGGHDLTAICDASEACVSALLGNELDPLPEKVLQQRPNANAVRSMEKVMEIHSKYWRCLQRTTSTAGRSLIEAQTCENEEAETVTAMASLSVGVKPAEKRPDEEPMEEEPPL
smiles,measurement,setting,value
"CCC(CC)(c1ccc(C(=O)NCCCCC(=O)NO)cc1)c1ccc(OCC(O)C(C)(C)C)c(C)n1 (stereo not drawn) [ZG-126, 4-(3-(5-(2-Hydroxy-3,3-dimethylbutoxy)-6-methylpyridin-2-yl)pentan-3-yl)-N-(5-(hydroxyamino)-5-oxopentyl)benzamide]",solubility,Solubility,9.19 µg/mL
same,histone H3 hyperacetylation at lysine 9 and 27 (H3K9 and H3K27),[1],comparable or superior to AM-193
same,tubulin acetylation,[1]; SAHA 100 nM,by far the most efficacious
same,tubulin acetylation and histone hyperacetylation,[2],comparable to or greater than that induced by a saturating concentration of SAHA
same,Cyp24a1 induction in B16-F10 tumors,B16-F10 tumors,robust induction of Cyp24a1
same,reduction in tumor burden,"4T1 tumors; BALB/c mice, ZG-126 high dose 5 mg/kg, statistically significant",~50%
same,#Surface metastases (lung),"4T1 tumors; 1,25D 0.25 μg/kg, SAHA 80 mg/kg, AM-193 0.2 mg/kg, ZG-126 high 5.0 mg/kg",47
same,#Surface metastases (lung),4T1 tumors; ZG-126 low 1.5 mg/kg,126
same,reduction of surface lung metastases,4T1 tumors; high-dose ZG-126 (5 mg/kg),~4 fold
same,MTD,in vivo,10 mg/kg
same,IC50,HDAC4,68 µM
same,IC50,"HDAC4; Table 1, purified enzyme, unit inferred",67.6 µM
